This passage reports IC50 results from patent US7709475B2, “Selective inhibitors against Cdk4 and Cdk6 having aminothiazole skeleton” (Banyu Pharmaceutical Co., Ltd., priority 2004, dated 2010).

One experiment has as its system JURKAT. Briefly: Inhibitory action against cell proliferation (WST-8), JURKAT. It counts as cell-based. As to conditions: Homo sapiens, 72 h, Jurkat cells, 3 days culture, read-out: concentration for 50% inhibition of cell proliferation (IC50), Jurkat. On the procedure:
Clinically isolated cancer cell lines EOL-1, KU812 and JURKAT were cultured in RPMI1640 medium containing 10% fetal calf serum at 37° C. in the presence of 5% CO2 under an atmosphere of saturated steam.
The inhibitory action against cell proliferation was measured by modifying the method of Skehan et al. [J. Natl. Cancer Inst., Vo. 82, 1107-1112 (1990)] according to the method of Ishiyama et al. [Talanta, Vol. 44, 1299 (1997)]. 100 μL each of cell culture medium containing 1×10^3 live cells of EOL-1, KU812 and JURKAT, respectively, was dispensed into each well of a 96-well cell culture dish, and the cells were cultured overnight. On the next day, a dilution series of solutions in DMSO was prepared from a DMSO solution of the compound of each Example. Then, the dilution series of solutions or DMSO only as a control for no drug addition were separately added to the medium for cell culture. Finally, 100 μL each of the culture medium containing either the dilution series of solutions of the compounds or DMSO only, was added to the cells which had been cultured in a 96-well dish, and then the cells were further cultured for 3 days.
After adding 20 μL each of WST-8 (Kishida Chemical Co., Ltd.) to each well and culturing the cells for another 2 hours, the optical densities at 450 nm were measured against a reference wavelength of 650 nm, and were compared with the control group. The results obtained by determining the concentrations for 50% inhibition of cell proliferation (IC50 (nM)) of the compounds of Examples are presented in the following Table 4.
On the technique in general: Tetrazolium assays rely on reduction of a dye to a coloured formazan, in cell work by metabolically active cells.

A further experiment has as its target T1, cyclin T1-Cdk9 (Homo sapiens, UniProt P50750).
T1 construct: made in house; host or cells: insect cell Sf9 (baculovirus)
Briefly: Cdk9 inhibitory action: cyclin T1-Cdk9 kinase activity. The settings on record: cyclin T1-Cdk9, 50 μM ATP. It counts as biochemical. An excerpt:
The cDNA of Cdk9, and the cDNA of a fusion protein of cyclin T1, an activating factor of Cdk9, and glutathione S-transferase, were integrated into a baculovirus expression vector to prepare a recombinant baculovirus. This was co-transfected into insect cell Sf9 to express an active complex of the cyclin T1/glutathione S-transferase fusion protein-Cdk9 at a high level. The cells were recovered and solubilized, and the active complex was adsorbed onto Glutathione Sepharose, and then was purified by elution with 10 mM reductive glutathione. The solution containing the eluted active complex was dialyzed against B buffer (composition: 20 mM Tris-hydrochloric acid buffer (pH 7.4)/200 mM sodium chloride/0.1% Tween-20/10 mM 2-mercaptoethanol/1 mM dithiothreitol/10% glycerol) to remove the reductive glutathione.
For the measurement of the activity of cyclin T1-Cdk9, a synthetic peptide ([…] was used as the substrate.
(§1) The reaction was performed by partially modifying the method of Kitagawa et al. [Oncogene, Vol. 7, 1067-1074 (1992)]. The volume of the reaction solution was 21.1 μL, and to the R buffer, purified cyclin T1-Cdk9, 25 μM of the substrate peptide, 50 μM of non-labeled adenosine triphosphate (ATP), and 0.5 μCi of [γ-33P]-labeled ATP (2000 to 4000 Ci/mmole) were added to react at 30° C. for 20 minutes. Then, 10 μL of 350 mM phosphate buffer was added to the reaction system to terminate the reaction. The substrate peptide was adsorbed onto P81 paper filter on a 96-well plate, and then washed several times with 75 mM phosphate buffer. The radioactivity of the substrate peptide was measured with a liquid scintillation counter.
Addition of the compound according to the invention to the reaction system was carried out by first preparing a dilution series of solutions of the compound in dimethylsulfoxide (DMSO), and adding […] of the dilutions. A control was provided by adding 1.1 μL of DMSO to the reaction system.
A representative compound of the compounds according to the invention was selected, and the IC50 value (nM) of this compound for the cyclin T1-Cdk9 activity was determined.

A further experiment deals with T2, cyclin B-Cdk1 (Homo sapiens, UniProt P06493).
T2 construct: made in house; host or cells: insect cell Sf9 (baculovirus)
Briefly: Cdk1 (Cdc2) inhibitory action: cyclin B-Cdk1 kinase activity. The settings on record: cyclin B-Cdk1, 50 μM ATP. It counts as biochemical.
Description: The cDNA of Cdk1, and the cDNA of a fusion protein of cyclin B, an activating factor of Cdk1, and glutathione S-transferase, were integrated into a baculovirus expression vector to prepare a recombinant baculovirus. This was co-transfected into insect cell Sf9 to express an active complex of the cyclin B/glutathione S-transferase fusion protein-Cdk1 at a high level. The cells were recovered and solubilized, then the active complex was adsorbed onto Glutathione Sepharose, and a cyclin B-Cdk1 active complex was recovered using Precision Protease and was purified by HPLC column chromatography.
For the measurement of the activity of cyclin B-Cdk1, a synthetic peptide (Ala-Lys-Ala-Lys-Lys-Thr-Pro-Lys-Lys-Ala-Lys-Lys) was used as the substrate.
as §1, with “cyclin B-Cdk1, 100” for “cyclin T1-Cdk9, 25”, “and 1” for “and 0.5”, “for 30” for “for 20”
Addition of the compound according to the invention to the reaction system was carried out by first preparing a dilution series of solutions of the compound in dimethylsulfoxide (DMSO), and adding 1.1 μL of the dilutions. A control was provided by adding 1.1 μL of DMSO to the reaction system.
A representative compound of the compounds according to the invention was selected, and the IC50 value of this compound for the cyclin B-Cdk1 activity was determined.

T1 sequence (P50750 whole entry): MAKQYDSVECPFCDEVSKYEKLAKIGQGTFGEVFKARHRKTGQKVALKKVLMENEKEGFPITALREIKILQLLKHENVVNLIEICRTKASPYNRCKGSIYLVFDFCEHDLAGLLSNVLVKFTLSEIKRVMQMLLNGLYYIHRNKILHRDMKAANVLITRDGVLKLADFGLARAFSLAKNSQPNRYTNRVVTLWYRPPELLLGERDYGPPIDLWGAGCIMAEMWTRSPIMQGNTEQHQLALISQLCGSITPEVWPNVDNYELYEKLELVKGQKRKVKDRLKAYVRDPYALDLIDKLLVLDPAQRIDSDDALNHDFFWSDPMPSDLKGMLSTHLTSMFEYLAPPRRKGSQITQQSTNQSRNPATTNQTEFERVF
T1 sequence (O60563 whole entry partner): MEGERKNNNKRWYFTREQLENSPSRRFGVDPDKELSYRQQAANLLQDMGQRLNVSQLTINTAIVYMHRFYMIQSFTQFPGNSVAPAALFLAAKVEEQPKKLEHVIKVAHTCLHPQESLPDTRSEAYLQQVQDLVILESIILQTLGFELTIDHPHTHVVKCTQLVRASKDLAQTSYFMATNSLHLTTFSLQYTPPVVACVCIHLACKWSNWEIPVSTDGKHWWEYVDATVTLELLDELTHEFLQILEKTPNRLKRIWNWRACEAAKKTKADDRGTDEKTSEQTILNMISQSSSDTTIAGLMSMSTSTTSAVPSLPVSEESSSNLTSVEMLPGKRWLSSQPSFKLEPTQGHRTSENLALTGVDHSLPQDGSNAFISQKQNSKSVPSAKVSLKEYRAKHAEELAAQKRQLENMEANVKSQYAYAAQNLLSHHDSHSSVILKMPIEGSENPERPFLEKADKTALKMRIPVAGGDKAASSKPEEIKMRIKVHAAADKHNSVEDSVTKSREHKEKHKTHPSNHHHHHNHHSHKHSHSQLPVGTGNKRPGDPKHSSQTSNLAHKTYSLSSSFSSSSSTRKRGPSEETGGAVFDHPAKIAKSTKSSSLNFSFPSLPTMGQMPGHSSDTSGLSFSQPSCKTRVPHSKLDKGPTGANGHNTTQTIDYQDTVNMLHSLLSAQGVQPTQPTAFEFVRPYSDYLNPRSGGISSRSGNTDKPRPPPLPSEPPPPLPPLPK
T2 sequence (P06493 whole entry): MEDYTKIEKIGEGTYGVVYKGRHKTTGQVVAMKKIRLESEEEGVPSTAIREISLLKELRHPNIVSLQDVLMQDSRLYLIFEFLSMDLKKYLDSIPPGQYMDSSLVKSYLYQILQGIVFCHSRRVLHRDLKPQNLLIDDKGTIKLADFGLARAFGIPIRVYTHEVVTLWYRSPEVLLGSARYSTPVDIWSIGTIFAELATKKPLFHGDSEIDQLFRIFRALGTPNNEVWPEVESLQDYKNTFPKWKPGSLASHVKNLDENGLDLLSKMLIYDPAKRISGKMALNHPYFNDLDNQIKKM
T2 sequence (P14635 whole entry partner): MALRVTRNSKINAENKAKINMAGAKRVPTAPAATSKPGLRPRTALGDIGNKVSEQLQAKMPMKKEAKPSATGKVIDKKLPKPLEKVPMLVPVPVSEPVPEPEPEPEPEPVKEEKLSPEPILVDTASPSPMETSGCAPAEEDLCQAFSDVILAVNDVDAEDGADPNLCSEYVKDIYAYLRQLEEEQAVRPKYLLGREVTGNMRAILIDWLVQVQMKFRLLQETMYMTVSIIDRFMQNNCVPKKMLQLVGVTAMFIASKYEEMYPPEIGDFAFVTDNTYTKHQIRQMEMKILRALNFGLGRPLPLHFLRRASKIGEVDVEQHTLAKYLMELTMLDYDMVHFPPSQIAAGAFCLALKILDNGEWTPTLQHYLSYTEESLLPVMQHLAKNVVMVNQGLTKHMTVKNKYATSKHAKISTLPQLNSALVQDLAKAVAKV

`Cc1cc(-c2cnc(Nc3cnc(CN4CCC(N(C)C)C4)cn3)s2)nc(SC2CCCCC2)n1` (stereo not drawn) [Example 94, 5-[2-(cyclohexylthio)-6-methyl-4-pyrimidinyl]-2-[5-(3-dimethylamino-1-pyrrolidinyl)methyl-2-pyrazinyl]amino-1,3-thiazole]: the IC50 in the experiment with JURKAT amounted to 180 nM; against cyclin T1-Cdk9 it was 270 nM; against cyclin B-Cdk1, 920 nM.

As to `Cc1cc(-c2cnc(Nc3cnc(CN4CCCC4)cn3)s2)nc(SC2CCCCC2)n1` [Example 93, 5-[2-(cyclohexylthio)-6-methyl-4-pyrimidinyl]-2-[5-(1-pyrrolidinyl)methyl-2-pyrazinyl]amino-1,3-thiazole], the IC50 against cyclin T1-Cdk9 is 230 nM; on cyclin B-Cdk1 it was 870 nM.

As for `CC(=O)N1CCN(Cc2ccc(Nc3ncc(-c4cc(C)nc(OC5CCCCC5)n4)s3)nc2)CC1` [Example 125, 5-[2-(cyclohexyloxy)-6-methyl-4-pyrimidinyl]-2-[5-(4-acetyl-1-piperazinyl)methyl-2-pyridyl]amino-1,3-thiazole], the IC50 in the experiment on JURKAT was 260 nM; against cyclin T1-Cdk9 it was 650 nM; against cyclin B-Cdk1, 1200 nM.

Turning to `Cc1cc(-c2cnc(Nc3cnc(CNCCO)cn3)s2)nc(SC2CCCCC2)n1` [Example 99, 5-[2-(cyclohexylthio)-6-methyl-4-pyrimidinyl]-2-[5-(2-hydroxyethylamino)methyl-2-pyrazinyl]amino-1,3-thiazole], the results for the IC50 with JURKAT and against cyclin T1-Cdk9 were 190 nM and 98 nM, respectively.

Turning to `Cc1cc(-c2cnc(Nc3cnc(CN4CCC(N(C)C)C4)cn3)s2)nc(OC2CCCCC2)n1` (stereo not drawn) [Example 13, 5-[2-(cyclohexyloxy)-6-methyl-4-pyrimidinyl]-2-[5-(3-dimethylamino-1-pyrrolidinyl)methyl-2-pyrazinyl]amino-1,3-thiazole], the IC50 with JURKAT is 170 nM; against cyclin T1-Cdk9 it was 430 nM; against cyclin B-Cdk1, 620 nM.

For `Cc1cc(-c2cnc(Nc3cnc(CN4CCN(C)CC4)cn3)s2)nc(OC2CCCCC2)n1` [Example 1, 5-[2-(cyclohexyloxy)-6-methyl-4-pyrimidinyl]-2-[5-(4-methyl-1-piperazinyl)methyl-2-pyrazinyl]amino-1,3-thiazole], the IC50 with JURKAT stood at 230 nM; at cyclin T1-Cdk9, 2500 nM; on cyclin B-Cdk1, 600 nM.

For `Cc1cc(-c2cnc(Nc3cnc(CN4CCN(C)CC4)cn3)s2)nc(NC2CCCCC2)n1` [Example 55, 5-[2-(cyclohexylamino)-6-methyl-4-pyrimidinyl]-2-[5-(4-methyl-1-piperazinyl)methyl-2-pyrazinyl]amino-1,3-thiazole], the IC50 on cyclin T1-Cdk9 amounted to 1400 nM; at cyclin B-Cdk1 it was 750 nM.

As to `Cc1cc(-c2cnc(Nc3cnc(CNC(C)C)cn3)s2)nc(SC2CCCCC2)n1` [Example 96, 5-[2-(cyclohexylthio)-6-methyl-4-pyrimidinyl]-2-[5-(isopropylamino)methyl-2-pyrazinyl]amino-1,3-thiazole], the IC50 with JURKAT came out at 140 nM; on cyclin T1-Cdk9, 140 nM; against cyclin B-Cdk1, 560 nM.

For the compound `Cc1cc(-c2cnc(Nc3cnc(CN4CCN(C)CC4)cn3)s2)nc(Sc2ccccc2Cl)n1` [Example 109, 5-[2-(2-chlorophenylthio)-6-methyl-4-pyrimidinyl]-2-[5-(4-methyl-1-piperazinyl)methyl-2-pyrazinyl]amino-1,3-thiazole], the results for the IC50 in the experiment on JURKAT, against cyclin T1-Cdk9 and on cyclin B-Cdk1 were 110 nM, 640 nM and 430 nM, respectively.

Regarding `Cc1cc(-c2cnc(Nc3ccc(CN4CCC[C@H]4CO)cn3)s2)nc(NC2CCCCC2)n1` [Example 137, (2S)-5-[2-(cyclohexylamino)-6-methyl-4-pyrimidinyl]-2-[5-(2-hydroxymethyl-1-pyrrolidinyl)methyl-2-pyridyl]amino-1,3-thiazole], the IC50 in the experiment on JURKAT is 250 nM; against cyclin T1-Cdk9, 1100 nM; against cyclin B-Cdk1, 1200 nM.
